Experimental data published in the CheMixHub ionic liquid set.

Experiment: xn = mol fraction of the nth substance listed
Details: 100 kPa

CC[n+]1ccn(C)c1.O=S(=O)([O-])O + O=C1O[C@H]([C@@H](O)CO)C(O)=C1O + O
viscosity [mPa·s]
Details	293.15 K	298.15 K	303.15 K	308.15 K	313.15 K	318.15 K
x2 = 0, x1 = 0.0009002	1.05	0.94	0.84	0.76	0.69	0.65
x2 = 0, x1 = 0.001799	1.07	0.95	0.85	0.77	0.7	0.64
x2 = 0, x1 = 0.002696	1.08	0.96	0.86	0.78	0.71	0.64
x2 = 0.0002713, x1 = 0.0008999	1.05	0.95	0.84	0.76	0.7	0.65
x2 = 0.0002768, x1 = 0.001798	1.08	0.96	0.86	0.78	0.71	0.65
x2 = 0.000277, x1 = 0.002695	1.09	0.97	0.87	0.78	0.72	0.65
x2 = 0.0005469, x1 = 0.0008997	1.06	0.96	0.85	0.77	0.71	0.66
x2 = 0.0005489, x1 = 0.001798	1.08	0.96	0.87	0.78	0.72	0.66
x2 = 0.0005544, x1 = 0.002694	1.1	0.98	0.88	0.79	0.72	0.66
x2 = 0.0008183, x1 = 0.0008994	1.07	0.96	0.85	0.78	0.71	0.67
x2 = 0.0008262, x1 = 0.001797	1.09	0.97	0.87	0.79	0.72	0.66
x2 = 0.000834, x1 = 0.002693	1.1	0.98	0.88	0.8	0.73	0.67
x2 = 0.00109, x1 = 0.0008992	1.07	0.97	0.86	0.78	0.72	0.67
x2 = 0.0011, x1 = 0.001797	1.09	0.97	0.88	0.8	0.73	0.67
x2 = 0.00111, x1 = 0.002693	1.11	0.99	0.89	0.8	0.73	0.67
x2 = 0.001362, x1 = 0.000899	1.08	0.97	0.86	0.79	0.72	0.68
x2 = 0.001374, x1 = 0.001796	1.1	0.98	0.88	0.8	0.73	0.67
x2 = 0.00139, x1 = 0.002692	1.11	1	0.89	0.81	0.74	0.68
x2 = 0.001633, x1 = 0.0008987	1.09	0.98	0.87	0.79	0.73	0.68
x2 = 0.001648, x1 = 0.001796	1.11	0.98	0.89	0.81	0.74	0.68
x2 = 0.001666, x1 = 0.002691	1.12	1	0.9	0.81	0.75	0.68
x2 = 0.001906, x1 = 0.0008985	1.09	0.98	0.88	0.8	0.73	0.69
x2 = 0.001923, x1 = 0.001795	1.11	0.99	0.9	0.81	0.74	0.68
x2 = 0.001942, x1 = 0.00269	1.12	1.01	0.9	0.82	0.75	0.69

Nc1ncnc2[nH]cnc12 + CC(=O)[O-].CC[n+]1ccn(C)c1
Details	viscosity [mPa·s]
298.15 K, x1 = 0.2012	960
